Entries after “also recorded” stand apart in the source; their conditions may differ.
Assays:
[1] = system: PC3 human HNSCC cell line; assay: cells; format: cell-based; details: MTT, 72h incubation, drug used alone
Description: (§1) The 3-(4,5-dimethylthiazol-2-yl)-2,5-diphenyltetrazolium bromide (MTT) cell proliferation assay was used to determine the growth inhibitory effect of gefitinib on the Hep2, CAL33 and […] human HNSCC cell lines. […] Each measurement was done in quadruplicate and the data were expressed as % proliferation of control cells incubated in the absence of drug.

[2] = system: CAL33 human HNSCC cell line; assay: cells; format: cell-based; details: CAL-33, MTT, 72h incubation, drug used alone
Description: as §1

[3] = system: Hep2 human HNSCC cell line; assay: cells; format: cell-based
Description: as §1

[4] = Toxicity in treated xenograft-bearing mice (weight loss, clinical observation); format: in vivo, nude mice; details: gefitinib 40 or 120 mg/kg per os 5 days a week; PEITC 20 to 90 mg/kg per os every 2 days
Description: (§2) Briefly, tumor xenografts were maintained by successive s.c. transplantation of tumor fragments in 8-week old nude mice. Tumor growth curves were obtained by plotting the mean relative tumor volume (i.e. the volume at a given time divided by the volume at the start of the experiment) from groups of at least 5 mice against time. Gefitinib was administered per os at 40 or 120 mg/kg 5 days a week for 3 to 5 weeks, while PEITC dissolved in corn oil was administered per os at 20 to 90 mg/kg every 2 days.

[5] = system: human HEP-2 HNSCC xenograft; parameters: species or system nude mice; details: mouse, in vivo
Description: (§3) The effect of gefitinib and PEITC alone or in combination on the growth of human tumor xenografts in nude mice was tested according to previously published procedures.
as §2

[6] = system: human SC131 NSCLC xenograft; format: in vivo, nude mice
Description: as §3, §2

NSCLC = details: gefitinib added to chemotherapy; over 2000 previously untreated NSCLC patients; cited from earlier work
[7] = system: human IC14 NSCLC xenograft; assay: Tumor xenograft growth in nude mice; format: in vivo; details: gefitinib 120 mg/kg per os, 5 days a week for 3 to 5 weeks
Description: as §3, §2

[8] = system: human IC9 NSCLC xenograft; assay: Tumor xenograft growth in nude mice; format: in vivo; details: gefitinib 120 mg/kg per os, 5 days a week for 3 to 5 weeks
Description: as §3, §2

[9] = system: human TEP NSCLC xenograft; assay: Tumor xenograft growth in nude mice; format: in vivo; details: gefitinib 120 mg/kg per os, 5 days a week for 3 to 5 weeks
Description: as §3, §2

advanced NSCLC = details: 142 patients with refractory disease; cited from earlier work

S=C=NCCc1ccccc1 [PEITC, Phenylethyl isothiocyanate]
IC50 [1]: 490 µM
IC50 [2]: 180 µM
IC50 ([3]; Homo sapiens, HEP-2, MTT, 72h incubation, drug used alone): 350 µM
toxicity, judged by absence of weight loss and clinical observation [4]: No toxicity was observed
inhibition of tumor growth [5]: neither gefitinib or PEITC had any antitumor effect
inhibition of tumor growth ([6]; mouse, in vivo): neither gefitinib or PEITC had any antitumor effect

COc1cc2ncnc(Nc3ccc(F)c(Cl)c3)c2cc1OCCCN1CCOCC1 [gefitinib, Gefitinib]
increase in the IC50 for gefitinib, compared with CAL33 and PC3 ([3]; Hep2 versus CAL33 and PC3): 4 fold
toxicity, judged by absence of weight loss and clinical observation [4]: No toxicity was observed
tumor growth response ([6]; gefitinib 120 mg/kg per os, 5 days a week for 3 to 5 weeks): refractory; also recorded: did not respond
benefit in survival, tumor response, or time to progression (NSCLC): no benefit
tumor growth response [7]: responded
tumor growth response [8]: sensitive; also recorded: responded
tumor growth response [9]: responded
response rate (advanced NSCLC): 10%
